Data from PMC8172577, “A Novel Antimicrobial Peptides From Pine Needles of Pinus densiflora Sieb. et Zucc. Against Foodborne Bacteria” (Frontiers in Microbiology, 2021).
In brackets after ≈: the same amount, converted by molar mass. Like-named read-outs stand apart in the source and are kept apart here. Where no end group is shown, it is not given here.

What was measured:
Format in all cases: cell-based
[1] = test system: mouse red blood cells (mRBCs); assay: Hemolytic activity; conditions: 60 min at 37°C
Experimental: Hemolysis was determined using the mouse red blood cells (mRBCs). Fresh mRBCs were collected in PBS and washed three times with PBS (final mRBC concentration, 8% v/v). […] Hemolytic activity was monitored at an absorbance (A) of 414 nm and calculated as a positive control [0.1% Triton X-100 (Atriton)] and negative control [PBS (Ablank)]. The resulting values of cells that underwent hemolysis were calculated according to equation ([Park et al., 2008]):
(1) Hemolysis=[(Asample−Ablank)/(Atriton−Ablank)]×100%

[2] = test system: Salmonella typhimurium KCTC1926; conditions: minimal concentration of peptide to inhibit microbial growth; 5 × 10^5 CFU/ml, 18 h at 37°C, OD 600 nm
Experimental: (§1) For antimicrobial assays, Escherichia coli ATCC 25922, Pseudomonas aeruginosa ATCC 15692, Staphylococcus aureus ATCC 25923, and Staphylococcus epidermidis ATCC 12228 were obtained from the American Type Culture Collection (Manassas, VA, United States). Salmonella typhimurium KCTC 1926 and Listeria monocytogenes KCTC 3710 were obtained from the Korean Collection for Type Cultures (Jeollabuk-do, Korea).
(§2) Minimum inhibitory concentrations (MICs) of purified PN peptides were assayed according to the Clinical and Laboratory Standards Institute recommendations ([Wiegand et al., 2008]). Briefly, bacterial suspension (5 × 10^5 CFU/ml), obtained by diluting an exponential growth phase culture, was then added into the 96-well plates containing 2-fold serial dilutions of each fraction, the plates were incubated for 18 h at 37°C. MICs of PN peptides were measured in optical density at 600 nm using Versamax™ ELISA Microplate Reader (Molecular Devices, Sunnyvale, CA, United States). PBS, culture media, and melittin were used as growth and growth inhibition controls. The MIC was defined as the lowest concentration of PN peptide that was able to inhibit microbial growth.

[3] = test system: Listeria monocytogenes KCTC3710; conditions: minimal concentration of peptide to inhibit microbial growth; 5 × 10^5 CFU/ml, 18 h at 37°C, OD 600 nm
Experimental: as §1, §2

[4] = test system: RAW264.7 (mouse macrophages) cells; assay: Cytotoxicity, MTT assay, RAW264.7; conditions: 12.5 μg/ml, 24 h
Experimental: (§3) The cytotoxic effect of PN peptides was assessed against HaCaT (human keratinocytes) and RAW264.7 (mouse macrophages) cells cultured in 96-well plates at a density of 2 × 10^4 cells/well in Dulbecco’s modified Eagle medium (DMEM) containing 10% fetal bovine serum. MTT [3-(4,5-dimethylthiazol-2-yl)-2,5-diphenyltetrazolium bromide] assays were used to evaluate cytotoxicity. PN peptides (0–200 μg/ml) were added with the cells for 24 h at 37°C. Subsequently, MTT (0.5 mg/ml) was added to each well and incubated for 4 h at 37°C After incubation, formazan crystals produced was dissolved in dimethyl sulfoxide, and the absorbance at 570 nm was measured and cytotoxicity was determined as a percentage of 100% cytotoxic control (0.1% Triton X-100; [Park et al., 2008]). Melittin was used as the control (reference) peptide.

[5] = test system: HaCaT (human keratinocytes) cells; assay: Cytotoxicity, MTT assay, HaCaT
Experimental: as §3

[6] = test system: Staphylococcus aureus ATCC25923; conditions: for Increased in MIC (fold): compared to the soluble extract
Experimental: as §1, §2

[7] = test system: Escherichia coli ATCC25922; conditions: minimal concentration of peptide to inhibit microbial growth; 5 × 10^5 CFU/ml, 18 h at 37°C, OD 600 nm
Experimental: as §1, §2

[8] = minimal concentration of peptide to inhibit microbial growth, 5 × 10^5 CFU/ml, 18 h at 37°C, OD 600 nm

Row | Compound | hemolysis at the lowest concentration ([1]; 3 μg/ml, 8% v/v mRBCs) | MIC [2] [µg/mL] | MIC [3] [µg/mL] | lysis (cytotoxicity) [4] [%] | lysis (cytotoxicity) ([5]; 12.5 μg/ml, 24 h) [%] | hemolysis ([1]; 200 μg/ml, 8% v/v mRBCs in PBS, A414, vs 0.1% Triton X-100, n = 3) | MIC [6, 8] [µg/mL] | MIC [7] [µg/mL] | cytotoxicity ([5]; 200 μg/ml, 24 h at 37°C, vs 0.1% Triton X-100, n = 3) [%] | Increased in MIC (fold) ([6]; after First C18 RP-HPLC) | Increased in MIC (fold) ([6]; after Second C18 RP-HPLC) | MIC ([6]; fraction after First C18 RP-HPLC, S. aureus ATCC25923) [µg/mL] | MIC ([6]; fraction after Second C18 RP-HPLC, S. aureus ATCC25923) [µg/mL]
1 | CC[C@H](C)[C@H](NC(=O)CN)C(=O)NCC(=O)N[C@@H](C)C(=O)N[C@H](C(=O)N[C@@H](CC(C)C)C(=O)N[C@@H](CCCCN)C(=O)N[C@H](C(=O)N[C@@H](CC(C)C)C(=O)N[C@H](C(=O)N[C@H](C(=O)NCC(=O)N[C@@H](CC(C)C)C(=O)N1CCC[C@H]1C(=O)N[C@@H](C)C(=O)N[C@@H](CC(C)C)C(=O)N[C@H](C(=O)N[C@@H](CO)C(=O)N[C@@H](Cc1c[nH]c2ccccc12)C(=O)N[C@H](C(=O)N[C@@H](CCCCN)C(=O)N[C@@H](CCCNC(=N)N)C(=O)N[C@@H](CCCCN)C(=O)N[C@@H](CCCNC(=N)N)C(=O)N[C@@H](CCC(N)=O)C(=O)N[C@@H](CCC(N)=O)C(N)=O)[C@@H](C)CC)[C@@H](C)CC)[C@@H](C)O)[C@@H](C)O)C(C)C)C(C)C [Melittin, reference compound] | induced hemolysis | 2 (≈ 0.703 µM) | 4 (≈ 1.41 µM) | 100 | 100 |  |  |  |  |  |  |  | 
2 | FKFLARTGKFL [PN5] |  | 64 | 32 |  |  | approximately 5% | 32 | 64 | 19 |  |  |  | 
3 | FKFLARTGKFL [PN-#5, peptide purified from pine needles of Pinus densiflora by RP-HPLC, peak 5] |  | 64 | 32 |  |  |  | 32 | 64 |  | 12.5 | 234.4 | 600 | 32
4 | FKFLARTGKFL-NH2 [PN5-NH2] |  | 32 | 32 |  |  |  | 16 | 64 |  |  |  |  | 
